Measurements reported in US8067454B2, “Thio-substituted Anthra [1, 2-d] imidazole- 6, 11-dione derivatives, preparation method and application thereof” (National Defense Medical Center, priority 2010, dated 2011).

Assays:
CCRF-CEM = experiment: NCI 60-cell drug screen, Leukemia CCRF-CEM; format: cell-based, human; conditions: 1.00E−5 Molar
K-562 = experiment: NCI 60-cell drug screen, Leukemia K-562; format: cell-based, human; conditions: 1.00E−5 Molar
SR = experiment: NCI 60-cell drug screen, Leukemia SR; format: cell-based, human; conditions: 1.00E−5 Molar
EKVX = experiment: NCI 60-cell drug screen, Non-Small Cell Lung Cancer EKVX; format: cell-based, human; conditions: 1.00E−5 Molar
NCI-H226 = experiment: NCI 60-cell drug screen, Non-Small Cell Lung Cancer NCI-H226; format: cell-based, human; conditions: 1.00E−5 Molar
NCI-H322M = experiment: NCI 60-cell drug screen, Non-Small Cell Lung Cancer NCI-H322M; format: cell-based, human; conditions: 1.00E−5 Molar
NCI-H460 = experiment: NCI 60-cell drug screen, Non-Small Cell Lung Cancer NCI-H460; format: cell-based, human; conditions: 1.00E−5 Molar
COLO 205 = experiment: NCI 60-cell drug screen, Colon Cancer COLO 205; format: cell-based, human; conditions: 1.00E−5 Molar
HCT-116 = experiment: NCI 60-cell drug screen, Colon Cancer HCT-116; format: cell-based, human; conditions: 1.00E−5 Molar
HT29 = experiment: NCI 60-cell drug screen, Colon Cancer HT29; format: cell-based, human; conditions: 1.00E−5 Molar
KM12 = experiment: NCI 60-cell drug screen, Colon Cancer KM12; format: cell-based, human; conditions: 1.00E−5 Molar
SF-539 = experiment: NCI 60-cell drug screen, CNS Cancer SF-539; format: cell-based, human; conditions: 1.00E−5 Molar
SNB-75 = experiment: NCI 60-cell drug screen, CNS Cancer SNB-75; format: cell-based, human; conditions: 1.00E−5 Molar
MDA-MB-435 = experiment: NCI 60-cell drug screen, Melanoma MDA-MB-435; format: cell-based, human; conditions: 1.00E−5 Molar
SK-MEL-5 = experiment: NCI 60-cell drug screen, Melanoma SK-MEL-5; format: cell-based, human; conditions: 1.00E−5 Molar
IGROV1 = experiment: NCI 60-cell drug screen, Ovarian Cancer IGROV1; format: cell-based, human; conditions: 1.00E−5 Molar
OVCAR-3 = experiment: NCI 60-cell drug screen, Ovarian Cancer OVCAR-3; format: cell-based, human; conditions: 1.00E−5 Molar
CAKI-1 = experiment: NCI 60-cell drug screen, Renal Cancer CAKI-1; format: cell-based, human; conditions: 1.00E−5 Molar
TK-10 = experiment: NCI 60-cell drug screen, Renal Cancer TK-10; format: cell-based, human; conditions: 1.00E−5 Molar
MDA-MB-231/ATCC = experiment: NCI 60-cell drug screen, Breast Cancer MDA-MB-231/ATCC; format: cell-based, human; conditions: 1.00E−5 Molar
HS 578T = experiment: NCI 60-cell drug screen, Breast Cancer HS 578T; format: cell-based, human; conditions: 1.00E−5 Molar
BT-549 = experiment: NCI 60-cell drug screen, Breast Cancer BT-549; format: cell-based, human; conditions: 1.00E−5 Molar
[1] = tested on: 60 kinds of different human cancer cells; experiment: NCI 60-cell drug screen, whole panel (One Dose Mean Graph); format: cell-based; conditions: mean over the cell lines of the panel; 1.00E−5 Molar
SVG p12 = experiment: MTT assay, SVG p12 normal cell; conditions: concentration 10 μM, normal cell
[2] = tested on: SVG p12, GBM8401 and GBM8901; experiment: MTT assay, normal cell versus tumor cells (categories 39-3 to 39-7); conditions: tumor cell survival rate less than 80%; FIG. 5A
[3] = tested on: telomerase (total cell lysates of lung cancer cell line H1299); experiment: Telomeric Repeat Amplification Protocol (TRAP) assay, screen of telomerase inhibitors; format: biochemical, human; conditions: 10 μM
Experimental: Telomeric Repeat Amplification Protocol (TRAP) Assay:
Telomerase activity was detected by a modified version of the general TRAP protocol. Telomerase products were resolved by 10% polyacrylamide gel electrophoresis and visualized by staining with SYBER Green. As a source of telomerase, the total cell lysates derived from lung cancer cell line H1299 cells were used. Protein concentration of the lysates was assayed using Bio-Rad protein assay kit using BSA standards.
In the TRAP assay, if a compound can stabilize the G-quadruplex structure such that telomerase can not act on telomere, then the effect of inhibiting the telomerase can be achieved. In the FIG. 2A to FIG. 2C, DMSO treatment represents as the positive control group (P); while a negative control group (N) used 5 μl of 0.1 mg/ml RNase A (CLONTECH) in the assay. It could be observed that a number of telomeric fragments were detected in the positive control group (P), while none was detected in the negative control group (N). 10 μM was selected as the concentration used to screen compounds.

MDA-MB-468 = experiment: NCI 60-cell drug screen, Breast Cancer MDA-MB-468; format: cell-based, human; conditions: 1.00E−5 Molar

Row | Structure (SMILES) | Growth Percent, CCRF-CEM (CCRF-CEM) [%] | Growth Percent, K-562 (K-562) [%] | Growth Percent, SR (SR) [%] | Growth Percent, EKVX (EKVX) [%] | Growth Percent, NCI-H226 (NCI-H226) [%] | Growth Percent, NCI-H322M (NCI-H322M) [%] | Growth Percent, NCI-H460 (NCI-H460) [%] | Growth Percent, COLO 205 (COLO 205) [%] | Growth Percent, HCT-116 (HCT-116) [%] | Growth Percent, KM12 (KM12) [%] | Growth Percent, SF-539 (SF-539) [%] | Growth Percent, SNB-75 (SNB-75) [%] | Growth Percent, MDA-MB-435 (MDA-MB-435) [%] | Growth Percent, SK-MEL-5 (SK-MEL-5) [%] | Growth Percent, IGROV1 (IGROV1) [%] | Growth Percent, TK-10 (TK-10) [%] | Growth Percent, MDA-MB-231/ATCC (MDA-MB-231/ATCC) [%] | Growth Percent, BT-549 (BT-549) [%] | Growth Percent, Mean [1] [%] | Cell survival rate (%) SVG p12 (SVG p12) [%] | also measured
1 | CCCSc1nc2ccc3c(c2[nH]1)C(=O)c1ccccc1C3=O [f1-2, 2-(propylthio)-1H-anthra[1,2-d]imidazole-6,11-dione] | 70.83 | 62.88 | 71.03 | 76.83 | 50.24 | 76.02 | 68.12 | 102.68 | 47.69 | 55.17 | 23.99 | −9.55 | 77.38 | 78.52 | 53.72 | 35.55 | 26.44 | 76.00 | 60.02 | 99 | Growth Percent, HT29 (HT29): 75.10%; Growth Percent, OVCAR-3 (OVCAR-3): 62.71%; Growth Percent, CAKI-1 (CAKI-1): 45.47%; Growth Percent, HS 578T (HS 578T): 33.33%; category 39-3: survival rate higher than 80% for normal cell SVG p12 and inhibits growth of both tumor cells GBM8401 and GBM8901 [2]: in this category
2 | O=C1c2ccccc2C(=O)c2c1ccc1nc3n(c21)CCS3 [f3-1, 2-(2-N-ethylthio)-1H-anthra[1,2-d]imidazole-6,11-dione] | 66.81 | 78.71 | 60.62 | 35.80 | 80.53 | 72.06 | 59.46 | 95.22 | 68.43 | 84.88 | 74.06 | 95.57 | 83.11 | 65.88 | 62.31 | 58.78 | 94.00 | 87.90 | 75.99 | 62 ± 1 | inhibition effect against telomerase [3]: exhibited inhibition effect against telomerase; Growth Percent, MDA-MB-468 (MDA-MB-468): 69.68%
